According to patent US20040116385A1, “Treating and preventing viral infections with porphyrin-based compounds” (priority 2002, published 2004):

Tests used:
[1] = test system: V79 hamster fibroblast cells
Source text: We have also determined the cytotoxicity of porphyrins 4, 16, 18, and 31 in V79 hamster fibroblast cells using a clonogenic assay.

[2] = test system: human leukemia K562 cells; assay: Alkaline Comet assay; assay type: cell-based; conditions: yellow light 100 W bulb 5 minutes, versus dark and light-only controls
Description: The second test, the alkaline Comet assay, is a sensitive technique for determining the presence of single- and double-strand breaks and other DNA lesions such as baseless sites. Human K562 cells were incubated with porphyrins 16, 31, and 33, and were then either exposed to a source of yellow light from a 100 W bulb for 5 minutes at room temperature or kept in the dark. The cells were then immobilized on agarose slides, lysed, exposed to alkaline buffer, electrophoresed, and stained for visualization.

HIV-1 = conditions: preliminary experiments
[3] = test system: supercoiled DNA substrate φX174; assay: Supercoiled DNA nicking assay (DNA photodamage); assay type: biochemical; conditions: for Form II (nicked) DNA produced in the dark: samples kept in the dark; for phosphodiester breaks in supercoiled DNA, light-exposed versus dark: yellow light 100 W bulb, 30 cm, 30 minutes
Source text: In the first test to determine the ability of a porphyrin to induce DNA photodamage, we used a supercoiled DNA substrate that migrates rapidly as a single band in agarose gels, but migrates much more slowly if the DNA sustains as little as a single phosphodiester break or nick. Using this technique, we examined the ability of porphyrins 16, 31 and 33 to nick the supercoiled DNA substrate φX174. The porphyrin—DNA mixtures were shielded from light until just prior to the nicking assay, at which time half of each sample remained in the dark, while the other half was exposed to yellow light from a 100 W bulb at a distance of 30 cm for 30 minutes, at room temperature. The samples were then incubated for 30 min at room temperature in the dark, and the products of the reaction were then electrophoresed on a 1% agarose gel and stained.

HIV-1 strain IIIB = assay: In vitro virucidal activity against HIV-1 strain IIIB (assay of A. Vzorov et al. 2002); assay type: cell-based; conditions: 0% = no infective particles remained
Description: (§1) Porphyrins 16, 31, and 33 have been assayed for in vitro virucidal activity against HIV-1 using the assay of A. Vzorov et al. (2002) (full citation below). The assay was conducted on two different strains of HIV-1, strain IIIB, and strain 89.6. The figures in the table denote the percentage of viral particles that were still infective following treatment.

HIV-1 strain 89.6 = assay: In vitro virucidal activity against HIV-1 strain 89.6 (assay of A. Vzorov et al. 2002); assay type: cell-based; conditions: 0% = no infective particles remained
Description: as §1

[4] = mouse, in vivo
[5] = test system: 9L, U-373MG and B16 cells; assay: Concentration-dependent cellular uptake; assay type: cell-based; conditions: cells exposed to 1, 5, and 10 μM for 24 hours
Description: The concentration-dependent uptake of compounds 4, 6, 10, and 12 was investigated in cells exposed to 1, 5, and 10 μM concentrations of the porphyrins for 24 hours. The concentration of intracellular-bound porphyrin was determined by chemical extraction of washed cell monolayers, followed by spectrophotometric or ICP-MS determinations, or both. The uptake values for 9L and U-373MG cells were very similar, and exceeded that for B16 cells. The porphyrin accumulation was invariably observed to increase with increasing concentration of the compound.

Rat gliosarcoma 9L cells = assay: Dark cytotoxicity assay, 9L cells; assay type: cell-based; conditions: 24 hour exposure, read-out: IC50 (dark toxicity)
Description: (§2) Human glioblastoma U373 MG, hamster V79 fibroblast, and mouse melanoma B16 cells were obtained from the American Type Culture Collection. Rat gliosarcoma cells were kindly provided by the University of California at San Francisco Brain Tumor Research Group. All cells were maintained in log phase monolayer cultures with RPMI 1640 supplemented with 10% fetal bovine serum and 2 mM glutamine.
(§3) Cells were seeded in 96-well culture plates, and were allowed to settle and attach for 24-48 hours. Triplicate wells were then exposed to twofold serial dilutions of test compounds at concentrations up to 250 μM. Compounds 4, 6, 10, and 12 in crystalline form were carefully weighed and dissolved in 100% DMSO to prepare stock solutions. Subsequent dilutions were performed directly in the culture medium just before the medium was administered to cells. After short-term (2 hour) or long-term (24 hour) exposure, cells were washed, and the wells were refilled with fresh culture medium. For dark toxicity trials, cells were allowed to proliferate for an additional 48-72 hours. For phototoxicity trials, washed cells were irradiated for 10 minutes with broad spectrum (600-700 nm) red light, and were then returned to an incubator for 48-72 hours.

[6] = test system: Human glioblastoma U373 MG cells; assay: Dark cytotoxicity assay, U-373 MG cells; assay type: cell-based; conditions: 24 hour exposure, read-out: IC50 (dark toxicity)
Description: as §2, §3

[7] = test system: 9L, U-373 MG and B16 cells; assay: Phototoxicity assay (red light irradiation); assay type: cell-based; conditions: irradiation with broad spectrum (600-700 nm) red light 10 minutes
Description: as §2, §3

Substance | CS50 [1] [µM] | DNA damage (Comet tail) after light exposure [2] | activity against HIV-1 in vitro (HIV-1) | Form II (nicked) DNA produced in the dark [3] | phosphodiester breaks in supercoiled DNA, light-exposed versus dark [3] | percentage of viral particles that were still infective following treatment (HIV-1 strain IIIB) [%] | percentage of viral particles that were still infective following treatment (HIV-1 strain 89.6) [%] | maximum tolerated dose [4] | uptake relative to the corresponding Zn(II) complexes [5] | IC50 (Rat gliosarcoma 9L cells) [µM] | IC50 [6] [µM] | IC50 ([7]; 2-hour exposure) [µM] | IC50 ([7]; 24-hour exposure) [µM]
Zn(II)-meso-tetra[4-(nido-carboranyl)phenyl]porphyrin tetrapotassium salt [Compound 18] | > 300 | – | – | – | – | – | – | – | – | – | – | – | –
5,15-bis[bis-3,5-(1-methyl-nido-carboranyl)methylphenyl]porphyrin tetrapotassium salt [Compound 31] | > 300 | light-activated DNA damage | high levels of activity | little Form II DNA | significantly more effective | 9 | 2 | exceeded 300 mg per kg of body weight | – | – | – | – | –
meso-tetra[4-(nido-carboranyl)phenyl]porphyrin tetrapotassium salt [Compound 16] | > 300 | light-activated DNA damage | high levels of activity | little Form II DNA | significantly more effective | 4 | 0 | exceeded 300 mg per kg of body weight | – | – | – | – | –
Zn(II)-5,15-bis[bis-3,5-(1-methyl-nido-carboranyl)methylphenyl]porphyrin tetrapotassium salt [Compound 33] | – | light-activated DNA damage | high levels of activity | little Form II DNA | significantly more effective | 0 | 4 | exceeded 300 mg per kg of body weight | – | – | – | – | –
meso-tetra[3-(1-methyl-nido-carboranyl)methylphenyl]porphyrin tetrapotassium salt [Compound 10] | – | – | – | – | – | – | – | – | approximately four times greater | ~150 | ~150 | – | –
Zn(II)-meso-tetra[4-(1-methyl-nido-carboranyl)methylphenyl]porphyrin tetrapotassium salt [Compound 6] | – | – | – | – | – | – | – | exceeded 300 mg per kg of body weight | – | – | – | – | –
meso-tetra[4-(1-methyl-nido-arboranyl)methylphenyl]porphyrin tetrapotassium salt [Compound 4] | > 300 | – | – | – | – | – | – | exceeded 300 mg per kg of body weight | approximately four times greater | ~150 | ~150 | ~50 | ~1.5
